Assay results reported in ChEMBL document CHEMBL4190336, “Discovery of a Novel Series of 7-Azaindole Scaffold Derivatives as PI3K Inhibitors with Potent Activity” (ACS Med Chem Lett, 2017).

Legend:
[1] = molecular target: Phosphatidylinositol 4,5-bisphosphate 3-kinase catalytic subunit gamma isoform (Homo sapiens, UniProt P48736)
Description: Inhibition of recombinant full length His-tagged human PI3K p110gamma expressed in baculovirus expression system using PIP2/PS as substrate after 1 hr by ADP-Glo luminescence assay

[2] = molecular target: PI3-kinase p110-delta/p85-alpha (Homo sapiens, UniProt O00329); test: Inhibition of recombinant human full length His-tagged PI3K p110delta/p85alpha expressed in baculovirus expression system using PIP2/PS as substrate after 1 hr by ADP-Glo luminescence assay
Chain of PI3-kinase p110-delta/p85-alpha (P27986 whole entry): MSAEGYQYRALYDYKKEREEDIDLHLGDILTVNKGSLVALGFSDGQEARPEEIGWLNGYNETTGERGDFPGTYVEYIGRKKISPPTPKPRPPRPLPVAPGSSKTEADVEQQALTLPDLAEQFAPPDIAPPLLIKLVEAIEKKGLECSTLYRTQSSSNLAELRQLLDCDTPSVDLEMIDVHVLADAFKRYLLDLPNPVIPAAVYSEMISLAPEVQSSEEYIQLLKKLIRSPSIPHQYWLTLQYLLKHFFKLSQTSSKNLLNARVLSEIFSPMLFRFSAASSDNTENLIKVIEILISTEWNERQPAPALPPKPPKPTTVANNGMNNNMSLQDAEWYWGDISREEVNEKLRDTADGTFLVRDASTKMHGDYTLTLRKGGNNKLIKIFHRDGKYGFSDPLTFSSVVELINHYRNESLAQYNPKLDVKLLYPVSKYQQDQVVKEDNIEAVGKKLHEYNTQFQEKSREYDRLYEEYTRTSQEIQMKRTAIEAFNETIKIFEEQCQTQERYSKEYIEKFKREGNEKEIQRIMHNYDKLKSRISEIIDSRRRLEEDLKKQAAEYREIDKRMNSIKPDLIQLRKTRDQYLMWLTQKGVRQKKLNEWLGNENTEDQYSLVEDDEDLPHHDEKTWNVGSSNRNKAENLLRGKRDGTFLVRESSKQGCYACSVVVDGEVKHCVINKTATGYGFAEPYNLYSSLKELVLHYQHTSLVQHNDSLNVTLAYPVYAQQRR
Chain of PI3-kinase p110-delta/p85-alpha (O00329 whole entry): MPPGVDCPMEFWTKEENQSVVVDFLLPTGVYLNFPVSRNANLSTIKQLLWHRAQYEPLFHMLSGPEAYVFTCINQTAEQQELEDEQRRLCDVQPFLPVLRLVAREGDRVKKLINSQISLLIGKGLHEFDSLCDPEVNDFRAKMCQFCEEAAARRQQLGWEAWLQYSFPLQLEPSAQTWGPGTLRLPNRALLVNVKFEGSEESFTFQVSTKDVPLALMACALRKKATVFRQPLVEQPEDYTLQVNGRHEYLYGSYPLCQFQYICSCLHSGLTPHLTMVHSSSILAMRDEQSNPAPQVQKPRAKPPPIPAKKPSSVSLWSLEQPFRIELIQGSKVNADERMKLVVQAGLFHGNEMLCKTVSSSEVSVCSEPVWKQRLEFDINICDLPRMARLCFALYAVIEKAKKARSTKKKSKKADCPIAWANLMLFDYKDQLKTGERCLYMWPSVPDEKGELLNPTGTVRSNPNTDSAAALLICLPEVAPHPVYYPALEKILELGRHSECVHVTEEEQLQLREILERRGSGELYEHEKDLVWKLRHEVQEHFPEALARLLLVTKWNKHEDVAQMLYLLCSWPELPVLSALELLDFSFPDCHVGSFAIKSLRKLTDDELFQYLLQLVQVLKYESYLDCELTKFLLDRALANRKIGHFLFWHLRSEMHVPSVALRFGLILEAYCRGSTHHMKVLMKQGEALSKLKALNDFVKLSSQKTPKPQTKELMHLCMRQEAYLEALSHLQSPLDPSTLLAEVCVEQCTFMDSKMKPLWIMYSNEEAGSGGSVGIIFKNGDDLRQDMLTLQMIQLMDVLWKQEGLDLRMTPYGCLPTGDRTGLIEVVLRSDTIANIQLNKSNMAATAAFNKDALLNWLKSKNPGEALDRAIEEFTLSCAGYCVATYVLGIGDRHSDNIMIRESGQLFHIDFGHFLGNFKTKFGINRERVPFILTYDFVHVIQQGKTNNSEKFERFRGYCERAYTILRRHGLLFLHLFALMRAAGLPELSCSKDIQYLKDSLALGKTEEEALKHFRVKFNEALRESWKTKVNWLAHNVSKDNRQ

MCF7 = test: Growth inhibition of human MCF7 cells after 72 hrs by SRB assay; format: functional; details: MCF7, 72 h
NCI-H460 = test: Growth inhibition of human NCI-H460 cells after 72 hrs by SRB assay; format: functional; details: NCI-H460, 72 h
U-87 MG = test: Growth inhibition of human U87MG cells after 72 hrs by SRB assay; format: functional, U-87MG ATCC
[3] = molecular target: Phosphatidylinositol 4,5-bisphosphate 3-kinase catalytic subunit beta isoform (Homo sapiens, UniProt P42338); test: Inhibition of recombinant human PI3K p110beta using PIP2/PS as substrate after 1 hr by ADP-Glo luminescence assay
Chain of Phosphatidylinositol 4,5-bisphosphate 3-kinase catalytic subunit beta isoform (P42338 whole entry, canonical isoform): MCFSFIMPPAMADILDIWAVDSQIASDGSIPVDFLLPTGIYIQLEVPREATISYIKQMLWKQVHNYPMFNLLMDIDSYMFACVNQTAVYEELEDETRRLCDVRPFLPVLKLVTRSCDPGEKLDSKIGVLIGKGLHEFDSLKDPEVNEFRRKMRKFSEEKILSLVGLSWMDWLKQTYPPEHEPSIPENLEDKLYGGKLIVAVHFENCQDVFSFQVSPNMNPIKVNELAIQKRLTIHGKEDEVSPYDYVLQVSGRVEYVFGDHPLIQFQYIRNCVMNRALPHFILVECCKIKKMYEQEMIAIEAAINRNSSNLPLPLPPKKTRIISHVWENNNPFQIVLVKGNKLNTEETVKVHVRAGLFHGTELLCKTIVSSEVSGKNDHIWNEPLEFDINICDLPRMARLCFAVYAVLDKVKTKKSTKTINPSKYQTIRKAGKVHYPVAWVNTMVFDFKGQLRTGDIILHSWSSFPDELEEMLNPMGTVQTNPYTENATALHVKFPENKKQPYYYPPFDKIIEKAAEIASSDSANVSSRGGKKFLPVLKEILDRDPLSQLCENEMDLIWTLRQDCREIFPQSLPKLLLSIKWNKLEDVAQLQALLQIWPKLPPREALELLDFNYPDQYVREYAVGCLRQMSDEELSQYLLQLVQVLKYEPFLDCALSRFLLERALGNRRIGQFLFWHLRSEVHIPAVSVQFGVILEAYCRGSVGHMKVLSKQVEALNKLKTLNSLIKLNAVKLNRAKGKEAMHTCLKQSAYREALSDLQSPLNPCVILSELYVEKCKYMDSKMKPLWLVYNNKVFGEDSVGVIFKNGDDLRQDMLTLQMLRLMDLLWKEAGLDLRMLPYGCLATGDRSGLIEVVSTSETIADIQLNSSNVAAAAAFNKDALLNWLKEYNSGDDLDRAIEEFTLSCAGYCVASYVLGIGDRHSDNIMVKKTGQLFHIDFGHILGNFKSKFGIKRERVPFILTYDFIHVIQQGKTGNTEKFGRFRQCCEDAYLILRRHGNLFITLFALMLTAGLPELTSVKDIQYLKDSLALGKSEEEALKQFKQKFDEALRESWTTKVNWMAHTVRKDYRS

Pfeiffer = test: Growth inhibition of human Pfeiffer cells by CCK8 assay; format: functional
T47D = test: Growth inhibition of human T47D cells after 72 hrs by SRB assay; format: functional
KARPAS-422 = test: Growth inhibition of human KARPAS422 cells by CCK8 assay; format: functional
[4] = molecular target: PI3-kinase p110-alpha/p85-alpha (Homo sapiens, UniProt P42336); test: Inhibition of recombinant full length N-terminal His-tagged human PI3K p110alpha/p85alpha expressed in baculovirus expression system using PIP2/PS as substrate after 1 hr by ADP-Glo luminescence assay
Chain of PI3-kinase p110-alpha/p85-alpha (P27986 whole entry): as the sequence (P27986 whole entry) above
Chain of PI3-kinase p110-alpha/p85-alpha (P42336 whole entry): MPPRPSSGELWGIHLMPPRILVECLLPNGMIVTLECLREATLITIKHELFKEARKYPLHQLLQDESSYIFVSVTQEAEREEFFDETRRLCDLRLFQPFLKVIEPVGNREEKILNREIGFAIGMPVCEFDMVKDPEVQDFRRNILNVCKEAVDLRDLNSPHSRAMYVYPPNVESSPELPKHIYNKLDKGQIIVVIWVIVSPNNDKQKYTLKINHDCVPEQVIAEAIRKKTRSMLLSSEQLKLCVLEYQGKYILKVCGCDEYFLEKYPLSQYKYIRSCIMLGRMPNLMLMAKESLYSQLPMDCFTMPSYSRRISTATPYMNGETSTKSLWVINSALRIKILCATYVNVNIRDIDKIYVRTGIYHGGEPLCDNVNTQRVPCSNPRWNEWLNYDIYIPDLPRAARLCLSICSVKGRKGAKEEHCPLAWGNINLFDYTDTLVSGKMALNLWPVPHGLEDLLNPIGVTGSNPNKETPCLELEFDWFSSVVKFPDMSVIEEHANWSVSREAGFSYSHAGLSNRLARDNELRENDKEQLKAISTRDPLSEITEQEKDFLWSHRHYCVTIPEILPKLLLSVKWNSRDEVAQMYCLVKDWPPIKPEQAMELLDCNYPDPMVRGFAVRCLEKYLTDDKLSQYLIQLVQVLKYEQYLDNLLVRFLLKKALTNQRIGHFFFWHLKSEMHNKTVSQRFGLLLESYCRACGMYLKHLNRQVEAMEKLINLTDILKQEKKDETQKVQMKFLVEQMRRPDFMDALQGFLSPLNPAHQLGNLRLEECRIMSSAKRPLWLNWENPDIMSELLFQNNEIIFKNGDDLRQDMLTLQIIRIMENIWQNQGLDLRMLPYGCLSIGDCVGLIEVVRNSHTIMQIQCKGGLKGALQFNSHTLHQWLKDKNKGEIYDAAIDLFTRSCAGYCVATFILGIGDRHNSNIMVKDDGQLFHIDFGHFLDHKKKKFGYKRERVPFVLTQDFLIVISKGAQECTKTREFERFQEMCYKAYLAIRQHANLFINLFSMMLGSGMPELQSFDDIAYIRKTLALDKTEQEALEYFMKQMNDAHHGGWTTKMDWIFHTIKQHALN

Chain of Phosphatidylinositol 4,5-bisphosphate 3-kinase catalytic subunit gamma isoform (P48736 whole entry, canonical isoform): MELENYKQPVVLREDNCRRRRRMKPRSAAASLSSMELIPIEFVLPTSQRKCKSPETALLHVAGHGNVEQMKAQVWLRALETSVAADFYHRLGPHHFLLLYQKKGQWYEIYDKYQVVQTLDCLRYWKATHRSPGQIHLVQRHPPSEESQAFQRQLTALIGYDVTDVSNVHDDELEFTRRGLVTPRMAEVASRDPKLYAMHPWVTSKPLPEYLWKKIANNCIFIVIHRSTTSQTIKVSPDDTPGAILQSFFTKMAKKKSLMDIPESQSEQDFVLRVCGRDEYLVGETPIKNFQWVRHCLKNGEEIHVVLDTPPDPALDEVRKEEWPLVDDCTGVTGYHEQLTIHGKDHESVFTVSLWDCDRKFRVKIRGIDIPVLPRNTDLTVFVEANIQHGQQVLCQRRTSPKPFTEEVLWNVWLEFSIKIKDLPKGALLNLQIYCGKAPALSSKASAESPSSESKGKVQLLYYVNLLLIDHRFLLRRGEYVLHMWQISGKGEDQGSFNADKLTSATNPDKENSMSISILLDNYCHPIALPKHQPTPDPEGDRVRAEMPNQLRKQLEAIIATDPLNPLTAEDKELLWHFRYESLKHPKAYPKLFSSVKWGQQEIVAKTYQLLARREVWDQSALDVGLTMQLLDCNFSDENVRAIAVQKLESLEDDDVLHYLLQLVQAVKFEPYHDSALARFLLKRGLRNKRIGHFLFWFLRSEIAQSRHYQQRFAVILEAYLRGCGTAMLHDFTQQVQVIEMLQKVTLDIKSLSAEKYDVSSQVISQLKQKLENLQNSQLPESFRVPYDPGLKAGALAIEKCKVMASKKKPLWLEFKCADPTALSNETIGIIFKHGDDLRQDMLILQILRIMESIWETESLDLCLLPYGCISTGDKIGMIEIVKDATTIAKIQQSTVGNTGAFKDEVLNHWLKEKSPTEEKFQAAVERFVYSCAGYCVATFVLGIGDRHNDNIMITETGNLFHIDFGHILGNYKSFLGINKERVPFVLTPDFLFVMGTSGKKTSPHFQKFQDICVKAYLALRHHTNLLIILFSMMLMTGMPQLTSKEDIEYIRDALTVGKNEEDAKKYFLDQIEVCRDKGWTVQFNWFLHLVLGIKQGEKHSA

Row | SMILES | IC50 [1] [nM] | IC50 [2] [nM] | GI50 (MCF7) [nM] | GI50 (NCI-H460) [nM] | GI50 (U-87 MG) [nM] | IC50 [3] [nM] | GI50 (T47D) [nM] | GI50 (KARPAS-422) [nM] | IC50 [4] [nM] | GI50 (Pfeiffer) [nM]
1 | Cc1cc2cc(-c3cnc(Cl)c(NS(=O)(=O)c4ccccc4)c3)cnc2[nH]1 | 63 |  |  |  |  |  |  |  |  | 
2 | CC[C@H](Nc1ncnc2[nH]cnc12)c1nc2cccc(F)c2c(=O)n1-c1ccccc1 [IDELALISIB] |  |  |  |  |  |  |  | 680 |  | 740
3 | O=S(=O)(Nc1cc(-c2cnc3[nH]cc(-c4ccncc4)c3c2)cnc1Cl)c1ccccc1 | 0.5 | 0.6 | 2140 | 3900 | 8950 | 2 | 1500 | 120 | 1 | 100
4 | O=S(=O)(Nc1cc(-c2cnc3[nH]cc(-c4ccncc4)c3c2)cnc1Cl)c1ccc(F)cc1 | 0.7 | 0.4 | 2910 | 6190 | > 10000 | 2 | 1300 | 370 | 1 | 410
5 | O=S(=O)(Nc1cc(-c2cnc3[nH]c(-c4ccccc4)cc3c2)cnc1Cl)c1ccccc1 | 268 |  |  |  |  |  |  |  |  | 
6 | O=S(=O)(Nc1cc(-c2cnc3[nH]cc(-c4ccccc4)c3c2)cnc1Cl)c1ccccc1 | 15 | 1 | > 10000 | > 10000 | > 10000 | 39 | 7720 | 1830 | 2 | 1520
7 | CCc1cc2cc(-c3cnc(Cl)c(NS(=O)(=O)c4ccccc4)c3)cnc2[nH]1 | 155 |  |  |  |  |  |  |  |  | 
8 | O=S(=O)(Nc1cc(-c2cnc3[nH]nc(-c4ccncc4)c3c2)cnc1Cl)c1ccccc1 | 7 | 0.7 | 690 | 2500 | 3120 | 4 | 520 | 170 | 1 | 150
9 | O=S(=O)(Nc1cc(-c2cnc3[nH]cc(-c4ccncc4)c3c2)cnc1Cl)c1ccccc1F | 0.7 | 0.5 | 2500 | > 10000 | 7130 | 3 | 1790 | 350 | 1 | 290
10 | O=S(=O)(Nc1cc(-c2cnc3[nH]nc(-c4ccccc4)c3c2)cnc1Cl)c1ccccc1 | 17 | 1 | 7370 | 8650 | > 10000 | 6 | 4190 | 1230 | 2 | 1300
11 | Cn1c(=O)n(-c2ccc(C(C)(C)C#N)cc2)c2c3cc(-c4cnc5ccccc5c4)ccc3ncc21 [DACTOLISIB] |  |  | 60 | 610 | 280 |  | 300 |  |  | 

Further lines, with some results ahead:

Row | IC50 [1] [nM] | IC50 [2] [nM] | GI50 (MCF7) [nM] | GI50 (NCI-H460) [nM] | GI50 (U-87 MG) [nM] | IC50 [3] [nM] | GI50 (T47D) [nM] | GI50 (KARPAS-422) [nM] | IC50 [4] [nM] | SMILES | GI50 (Pfeiffer) [nM]
12 | 2060 |  |  |  |  |  |  |  |  | COc1ncc(-c2ccc(N)nc2)cc1NS(=O)(=O)c1ccccc1 | 
13 | 68 |  |  |  |  |  |  |  |  | CN(C)C(=O)Nc1ccc(-c2cnc(Cl)c(NS(=O)(=O)c3ccccc3)c2)cn1 | 
14 | 37 | 1 | 7400 | 7610 | 8940 | 29 | 4400 | 1090 | 51 | O=S(=O)(Nc1cc(-c2cnc3[nH]ncc3c2)cnc1Cl)c1ccccc1 | 1160
15 | 381 |  |  |  |  |  |  |  |  | Cc1ncc(-c2ccc(N)nc2)cc1NS(=O)(=O)c1ccccc1 | 
16 | 420 |  |  |  |  |  |  |  |  | CC(=O)Nc1ccc(-c2cnc(Cl)c(NS(=O)(=O)c3ccccc3)c2)cn1 | 
17 | 1590 |  |  |  |  |  |  |  |  | Nc1ccc(-c2cncc(NS(=O)(=O)c3ccccc3)c2)cn1 | 
18 | 2970 |  |  |  |  |  |  |  |  | Nc1ccc(-c2cnc(N)c(NS(=O)(=O)c3ccccc3)c2)cn1 | 
19 | 1490 |  |  |  |  |  |  |  |  | CCNc1ccc(-c2cnc(Cl)c(NS(=O)(=O)c3ccccc3)c2)cn1 | 
20 | 375 |  |  |  |  |  |  |  |  | Nc1ccc(-c2cnc(Cl)c(NS(=O)(=O)c3ccccc3)c2)cn1 | 
21 | 445 |  |  |  |  |  |  |  |  | O=C(Nc1ccc(-c2cnc(Cl)c(NS(=O)(=O)c3ccccc3)c2)cn1)C1CC1 | 
22 | 97 | 1 | > 10000 | > 10000 | > 10000 | 35 | > 10000 | 6710 | 35 | O=S(=O)(Nc1cc(-c2cnc3[nH]ccc3c2)cnc1Cl)c1ccccc1 | 5500
23 | 4750 |  |  |  |  |  |  |  |  | CS(=O)(=O)Nc1ccc(-c2cnc(Cl)c(NS(=O)(=O)c3ccccc3)c2)cn1 | 
